Assay results taken from PMC4839297, “HTS-Driven Discovery of New Chemotypes with West Nile Virus Inhibitory Activity” (Molecules, 2010).
Where two headings read alike, the source gives them in different places.

Key:
[1] = tested on: WNV (NY-99 strain) infection of Vero E6 cells; assay: Single dose primary HTS, CPE based (CellTiter-Glo), 384-well; assay type: cell-based, West Nile virus
[2] = Cytotoxicity in dose-response format (CellTiter-Glo); assay type: cell-based; conditions: African green monkey, Vero E6 cells (uninfected)
Experimental: (§1) To confirm the activity and to test the cytotoxicity, the top 110 inhibitory compounds were evaluated in a dose response assay using the identical screen.
Cytotoxicity and antiviral efficacy were performed in a dose-response format in parallel. Compounds were serially diluted in complete media (MEM-E) with a 0.5% DMSO final concentration and adding 5 μL to cell plates, identical to the stacked plate method. […] Virus (0.04 MOI) or media was added for antiviral effect or cytotoxicity respectively. The plates were incubated 96 h in a 5% CO2 incubator at 37 °C. Cell viability was measured as stated above. The serially diluted compounds were also used for time of addition studies adding to the infected cells in 384-well plates at -1, 4, 8 and18 h post-infection with WNV (0.02 MOI). The plates were then developed as above 96 h after infection. The EC50 value was calculated for each time of addition point.
(§2) The Z′ value was employed to evaluate the assay’s robustness and was calculated from 1-(3×standard deviation of cell control (σc) + 3* standard deviation of the virus control (σv)/ [mean cell control signal (μc) minus mean virus control signal (μv)]). The signal/background (S/B) was calculated from the mean cell control signal (μc) divided by the mean virus control signal (μv). The signal/noise (S/N) was calculated from mean cell control signal (μc) minus mean virus control signal (μv) divided by the (standard deviation of the cell control signal (σc)^2 […] the standard deviation of the virus control signal (σv)^2)^1/2 [24]. The effective concentration at which the drug inhibited cell death at 50% in the presence of virus (EC50) and the cytotoxicity of the drug alone at 50% (CC50) were calculated using ActivityBase software (IDBS, Inc, Guildford, UK). CPE inhibition (%) and cell viability were calculated as described in elsewhere. The standard curve analysis function in SigmaPlot™ was used to calculate the inhibitory concentration (IC50 and IC50 values) for the protease and titer reduction assays.

[3] = tested on: WNV (NY-99 strain) infection of Vero E6 cells; assay: Time of addition assay in dose response format; assay type: cell-based, West Nile virus; conditions: for EC50 change pattern (time of addition): Table 2; for EC50 change pattern over the course of infection: Table 3, compound added at -1, 4, 8, 18 h post-infection; for EC50: West Nile virus, Vero C1008, 18 h, read-out: EC50 in time of addition assay
Experimental: The compounds selected by the primary and dose response screening were re-supplied from the suppliers as a solid form except 4 compounds; SMR000394098, SMR000059052, SMR000027739 and SRI-4578, which were not available at that time (Table 1). Time of addition assays were conducted in a dose response format with the 20 compounds. Serially diluted compounds were added to Vero E6 cells at -1, 4, 8 and 18 h post-infection. Luminescent data was calculated (as above) to obtain EC50 values for each compound at each time point of addition.
The EC50 of MPA was within a range of 2.0~5.0 μM regardless of when it was added.
(§3) Cytotoxicity and antiviral efficacy were performed in a dose-response format in parallel. Compounds were serially diluted in complete media (MEM-E) with a 0.5% DMSO final concentration and adding 5 μL to cell plates, identical to the stacked plate method. A ten point, two-fold dilution series of compound concentrations ranging from 30 μM to 0.059 μM were used in the assay. Virus (0.04 MOI) or media was added for antiviral effect or cytotoxicity respectively. The plates were incubated 96 h in a 5% CO2 incubator at 37 °C. Cell viability was measured as stated above. The serially diluted compounds were also used for time of addition studies adding to the infected cells in 384-well plates at -1, 4, 8 and18 h post-infection with WNV (0.02 MOI). The plates were then developed as above 96 h after infection. The EC50 value was calculated for each time of addition point.

[4] = tested on: WNV progeny virus in Vero E6 cells; assay: Titer reduction assay (TCID50 of progeny virus); assay type: cell-based, West Nile virus; parameters: SI50 *: unit not given beside the values; conditions: for SI50 *: Table 3, footnote to * not given; for EC50 / EC90 / inhibition at 15 µM: West Nile virus; for EC50 / EC90: Vero C1008, 48 h; for EC50: read-out: Dose response in Titer reduction EC50; for EC90: read-out: Dose response in Titer reduction EC90; for inhibition at 15 µM: Vero C1008, read-out: inhibition of progeny virus titer
Experimental: Finally, we employed a titer reduction assay to confirm the antiviral activity of the seven compounds confirmed in the assays. The titer of the progeny virus produced in the presence of the compounds was measured in TCID50 format. […] The titer reduction assay confirmed the antiviral activity of the hit compounds selected through our pathway (Figure 6).
Vero E6 cells were seeded in a 12-well plate in a volume of 1 mL and incubated overnight at 37 °C and 5% CO2. The next day media was aspirated from the cells and they were infected by adsorption of WNV (0.1 MOI) for one hour in 100 μL media. After aspirating the virus and washing the cells with phosphate buffered saline, media was replenished containing compounds at various concentrations. The plates were incubated for 48 h. Progeny virus titer was measured by TCID50 assay in 384-well plate format with 6 wells per dilution of virus. CellTiter-Glo® reagent was employed to determine a cell death which is a sign of infection. A well with a luminescence signal less than the mean of the non-infected control signal, minus 5 times the standard deviation of the control, was regarded as a positive infection. The TCID50 was calculated with the numbers of positive infection and negative infection by the Reed-Muench method.

[5] = target: T1, WNV NS2b-NS3pro (West Nile virus, UniProt Q9Q6P4); assay: WNV NS2b-NS3pro FRET based enzymatic assay; assay type: biochemical
T1 construct: A recombinant NS3 protease expressed and purified from E.coli; purchased AnaSpec Inc (CA, USA); host or cells: E. coli
Description: The results from the time of addition assay led us to examine the NS3 protease as a potential target of the hit compounds. NS3 protease is an important enzyme responsible for the maturation of viral proteins at early stage during the replication of virus in the host cells. We tested the compounds for an inhibitory activity on NS3 protease using a FRET based, in vitro, enzymatic assay.
A recombinant NS3 protease expressed and purified from E.coli with the cofactor NS2b (residues 49-96) and a fluorescence resonance energy transfer (FRET) based assay kit were purchased from AnaSpec Inc (CA, USA). We followed an assay protocol published on line at PubChem by University of Pittsburgh Molecular Library Screening Center (http://www.ncbi.nlm.nih.gov/, AID:577). The assay was performed in a 384-well format with 10 ng/well of NS2b-NS3pro enzyme.

[6] = tested on: WNV (NY-99 strain) infection of Vero E6 cells; assay: Dose response assay in CPE based screen (antiviral efficacy); assay type: cell-based, West Nile virus
Experimental: as §1
After reviewing the data from the primary screen, 110 compounds were selected for a dose-response study. The same compound stocks (10 mM in 100% DMSO) were used to select 7 μL of the compounds into a low-volume, 384-well plate. The dose response plates were prepared using a “stacked-plate” format using a 1:2 dilution series for a total of ten concentrations. By using this format, each entire plate represents one of the ten concentrations in the dilution series. A 5 μL aliquot of each of the serial dilution plates was transferred to the assay plates along with an equal volume but separate transfer of controls. With the addition of 20 μL of cells and 5 μL of virus, the final test concentrations for the dose response screen were 30 μM, 15 μM, 7.5 μM, 3.75 μM, 1.875 μM, 0.9375 μM, 0.4688 μM, 0.2344 μM, 0.1172 μM, and 0.0586 μM all at […].
as §3, §2

[7] = Table 3, Vero E6, read-out: Dose response in CPE based CC50
[8] = Table 1, CPE based dose response, Vero E6, WNV 0.04 MOI, 96 h, read-out: EC50
[9] = West Nile virus, Vero C1008, 96 h, Table 1, CPE based dose response, Vero E6, WNV 0.04 MOI, 96 h
[10] = West Nile virus, Vero C1008, read-out: Dose response in CPE based EC50, Table 3, Vero E6, WNV
[11] = Table 1, Vero E6 without virus, 96 h, read-out: CC50

T1 sequence (Q9Q6P4 1506-1683 limits assumed, looked up): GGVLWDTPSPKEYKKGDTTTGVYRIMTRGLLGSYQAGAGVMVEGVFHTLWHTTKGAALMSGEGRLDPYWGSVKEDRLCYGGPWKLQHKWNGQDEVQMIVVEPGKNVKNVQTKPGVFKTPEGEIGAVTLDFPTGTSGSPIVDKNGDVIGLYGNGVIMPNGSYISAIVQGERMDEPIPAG
T1 sequence (Q9Q6P4 1423-1470 partner limits assumed, looked up): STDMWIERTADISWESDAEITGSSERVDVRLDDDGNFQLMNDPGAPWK

Row | Compound | inhibition at 5 µg/mL ([1]; West Nile virus, Vero C1008, read-out: inhibition on average in primary screen) [%] | protection ([1]; assay optimization, MOI 0.04, 384-well) [%] | CC50 at 96 h [2, 7] [µM] | EC50 change pattern (time of addition) [3] | EC50 change pattern over the course of infection [3] | EC50 [3] [µM] | SI50 * [4] | EC50 [4] [µM] | EC90 [4] [µM] | anti-NS2b-NS3pro activity (in words) [5] | SI50 (Selectivity Index 50, ratio of CC50 to EC50) ([6]; Table 1) | EC50 [6, 8] [µM] | EC50 [6, 9] [µM] | EC50 [6, 10] [µM] | CC50 at 96 h [2, 11] [µM] | Dose response in Titer reduction EC50 ([4]; Vero E6, WNV 0.1 MOI, 48 h post-infection) | inhibition at 15 µM [4] [%]
1 | COc1c(C)c2c(c(O)c1C/C=C(\C)CCC(=O)O)C(=O)OC2 [MPA, mycophenolic acid, reference compound] | 44.6 | 30 | > 30 | No Change : EC50_1hr ≈ EC50_4hr ≈ EC50_8hr ≈ EC50_18hr | no change | 2 to 5 | >1000 | 0.03 | 0.94 |  |  |  |  |  |  |  | 
2 | O=C(O)c1ccccc1Nc1ccccc1 [N-Phenylanthranilic acid, reference compound] |  |  |  |  |  |  |  |  |  | could not detect any significant activity |  |  |  |  |  |  | 
3 | Cc1oc(-c2ccccc2Cl)nc1CSCC(=O)N1CCCC1 [SMR000027739] |  |  |  |  |  |  |  |  |  |  | >3.4 | 29.6 |  |  |  |  | 
4 | CC(=O)OC[C@H]1O[C@@H](n2ncc(=O)[nH]c2=O)[C@H](OC(C)=O)[C@@H]1OC(C)=O [SMR000059052] |  |  |  |  |  |  |  |  |  |  | >5.0 | 20 |  |  |  |  | 
5 | O=C(O)c1ccccc1Nc1ccc([N+](=O)[O-])cc1 [SMR000171908] |  |  | > 30 | Increase: EC50_1hr ≈ EC50_4hr ≤ EC50_8hr < EC50_18hr | Increase |  | >25 | 1.16 | 6.73 |  | >3.3 |  | 30.4 | 30.4 | > 100 |  | 
6 | C[C@@H]1Cc2ccccc2N1S(=O)(=O)c1cccc(C(=O)N2CCN(c3ncccn3)CC2)c1 [SMR000370276] |  |  | > 30 | Increase: EC50_1hr ≈ EC50_4hr ≤ EC50_8hr < EC50_18hr | Increase |  | >5 |  | 6.07 |  | >5.3 |  | 18.9 | 18.9 | > 100 | No solution | 98.8
7 | CC(C)C[C@H](NC(=O)c1nc[nH]c1C(=O)N1CCN(C(=O)OC(C)(C)C)CC1)C(=O)OC(C)(C)C [SMR000394098] |  |  |  |  |  |  |  |  |  |  | >5.1 | 19.6 |  |  |  |  | 
8 | COc1cc(-c2ccc(Nc3ccccc3C(=O)O)c(OC)c2)ccc1Nc1ccccc1C(=O)O [SRI-19093, Redoxal] |  |  | > 30 |  | Increase | 3.2 to 6.4 | >200 | 0.13 | 2.14 | inhibited viral protease in vitro | >2.4 |  | 41 | 41 | > 100 |  | 93.7
9 | COc1cccc2c(=O)n3c(nc12)/C(=C/c1ccc2c(c1)OCO2)CC3 [SRI-22003] |  |  | > 30 | Increase: EC50_1hr ≈ EC50_4hr ≤ EC50_8hr < EC50_18hr | Increase |  | >6 | 4.7 | 5.13 |  | >8.2 |  | 12.2 | 12.2 | > 100 |  | 98.8
